These results are taken from patent US10358405B2, “Myricanol derivatives and uses thereof for treatment of neurodegenerative diseases” (UNIVERSITY OF SOUTH FLORIDA, priority 2012, dated 2019).

The subject of assay [1] is tau. Kind of assay: Tau level reduction in HeLa cells stably transfected with tau treated with myricanol derivatives. In kind it is cell-based. Conditions: for reduction of levels of tau proteins: summary statement. The protocol:
To assess the effects of the aqueous bayberry extract on overexpressed and endogenous tau levels, HeLa cells stably transfected with tau were treated with the myricanol derivatives.

Assay [2] concerns tau. Kind of assay: Tau-reducing-guided fractionation study of Myrica cerifera (tau destabilizer activity). In kind it is cell-based. Conditions: read-out: IC50 as tau destabilizer agent. The protocol: The bayberry root-bark powder (5×1 kg) was extracted with 5×2 L of toluene under agitation in a (5×) flask protected from light (3×24 h). The filtrate was concentrated and gave 58 g of extract. The toluene extract was purified using silica gel MPLC, eluting with a gradient of 0 to 40% ethyl acetate/hexanes to yield 27 g of (+)-aR,11S-myricanol [α]D^21=48.2 (c=1.1, Chloroform).

[3] abbreviates: Table 1, tau-reducing activity, result in words.
Where [4] appears, read: HeLa cells stably transfected with tau.

In general, IC50 refers to the concentration needed to halve the response being measured. Take `COc1c2cc(c(O)c1OC)CCCC[C@H](O)CCc1ccc(O)c-2c1` [Compound 1, Myricanol]: the Results result with tau [1] (setting [3]) is given as “moderate activity”. In the assay on tau [2], the 50% inhibitory concentration (IC50) amounted to 35 µM.

Regarding `O=C(/C=C/c1ccc(O)cc1)CC(=O)/C=C/c1ccc(O)cc1` [Compound 10, Bisdemethoxycurcumin], the Results entry in the assay with tau [1] (setting [4]) and in the assay with tau [1] (setting [3]) was “active” in each case.

In the case of `CCCCCCCCC[C@H](O)CC(=O)CCc1ccc(O)c(OC)c1` [Compound 11, [10]-Gingerol], the Results entry is recorded as “active” in the assay with tau [1] (setting [4]) and “Active” with tau [1] (setting [3]).

As to `COc1c2cc(c(O)c1OC)CCC/C=C/CCc1ccc(O)c-2c1` [Compound 18, Myricacene A (trans)], the Results result in the assay with tau [1] (setting [4]) and with tau [1] (setting [3]) was “active” throughout.

Turning to `COc1c2cc(c(O)c1OC)CCCC/C=C/Cc1ccc(O)c-2c1` [Compound 19, Myricacene B (trans)], the Results result with tau [1] (setting [4]) and in the assay on tau [1] (setting [3]) was “active” throughout.

Take `COc1c2cc(c(O)c1OC)CCC/C=C\CCc1ccc(O)c-2c1` [Compound 21, Myricacene A (cis)]: the Results result in the assay with tau [1] (setting [4]) and in the assay on tau [1] (setting [3]) was “moderately active” throughout.

On to `COc1c2cc(c(O)c1OC)CCCC/C=C\Cc1ccc(O)c-2c1` [Compound 22, Myricacene B (cis)], for which the Results result with tau [1] (setting [4]) and with tau [1] (setting [3]) was “active” throughout. Further, the “tau-reducing activity, dose-dependent bioassay” value with tau [1] (concentration of 20 μg/mL) is on record as “potent tau-reducing compound”. Also, in the assay with tau [1], the “reduction of levels of tau proteins” value was “potently reduce levels of tau proteins”.

As for `COc1cc2c(c(O)c1OC)CCCC1CCCc3ccc(O)c-2c31` (stereo not drawn) [Compound 23], the Results result with tau [1] (setting [4]) and with tau [1] (setting [3]) was “very active” in each case. In addition, the “reduction of levels of tau proteins” value with tau [1] is reported as “potently reduce levels of tau proteins”. For the same compound, the “reduction of protein tau levels, time-dependent bioassay” value in the assay with tau [1] (treatment of HeLa cells for 24 hours) is on record as “potently reduces protein tau levels”.

For the compound `COc1c2cc(c(O)c1OC)CCCCC1CCc3ccc(O)c-2c31` (stereo not drawn) [Compound 24], the Results entry in the assay on tau [1] (setting [4]) and in the assay on tau [1] (setting [3]) was “active” in each case.

In the case of Demethoxycurcumin [Compound 9], the Results entry in the assay with tau [1] (setting [4]) and with tau [1] (setting [3]) was “active” throughout.
